Source: US12440443B2, “Nano-emulsion of CBFβ-RUNX1 inhibitor for ocular drug deliver” (Massachusetts Eye and Ear Infirmary, priority 2017, dated 2025)

Assay: Solubility behaviour of Ro5-3335 in aqueous solution
Assay type: physicochemical
Excerpt: The invention provides a solution to many problems and/or drawbacks of earlier ocular formulations and features a nano-emulsion composition, e.g., a nano-emulsion comprising a core binding factor β (CBFβ)-Runt-Related Transcription Factor 1 (RUNX1) (CBFβ-RUNX1) inhibitor. […] With our emulsion, we have devised a composition to encapsulate the drug in a nanonsphere, which allows for suspension in an aqueous solution, and increases availability of the drug, and also improves penetration of ocular tissues.

In the case of `O=C1CN=C(c2ccc[nH]2)c2cc(Cl)ccc2N1` [Ro5-3335, 7-chloro-1,3-dihydro-5-(1h-pyrrol-2y-yl)-2H-1,4-benzodiazepin-2-one], the “solubility in aqueous solution” value is reported as “insoluble in aqueous solution”.
